Experimental findings from patent US20080207522A1, “Antimicrobial Peptides” (priority 2004, published 2008) are described below.

For assay [1], the system named is Pseudomonas aeruginosa strain H1001 fliC::luxCDABE. The assay can be described thus: Luminescence-based assay for the non-cleaved (bound) peptides on cellulose membranes. The note with it: for Luminescence at the given time in minutes: 0 / Luminescence at the given time in minutes: 20 / Luminescence at the given time in minutes: 40 / Luminescence at the given time in minutes: 60 / Luminescence at the given time in minutes: 80 / Luminescence at the given time in minutes: 100 / Luminescence at the given time in minutes: 120 / Luminescence at the given time in minutes: 180 / Luminescence at the given time in minutes: 240: cellulose-bound peptide; for Luminescence at the given time in minutes: 0: 0 min; for Luminescence at the given time in minutes: 20: 20 min; for Luminescence at the given time in minutes: 40: 40 min; for Luminescence at the given time in minutes: 60: 60 min; for Luminescence at the given time in minutes: 80: 80 min; for Luminescence at the given time in minutes: 100: 100 min; for Luminescence at the given time in minutes: 120: 120 min; for Luminescence at the given time in minutes: 180: 180 min; for Luminescence at the given time in minutes: 240: 240 min; for Activity Class bound: uncleaved cellulose-bound peptides. It is filed as cell-based. In short, it runs like this:
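Peptides remained bound to cellulose spots, which were ethanol-washed and equilibrated in 100 mM Tris pH 7.3. Constitutively lux-expressing P. aeruginosa (OD600 0.35 culture diluted 1:25) added in 10 mM Tris-HCl pH 7.3, 20 mM glucose at 37° C. Luminescence (RLU) followed over 14 time points; peptides binned into six activity classes.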

Assay [2] concerns Pseudomonas aeruginosa strain H1001. The assay is described as follows: Assay for the cleaved (free, soluble) peptides from cellulose support, luminescence killing assay. In kind it is cell-based. The arrangement: key: 1: Peptides showing stronger killing than Bac2A at a 4 to 8-fold higher dilution; Peptides showing stronger killing compared to that of Bac2A at a 4-fold higher dilution; 3: Peptides similar to Bac2A; 4: Peptides similar to Bac2A at the highest concentration but demonstrating weaker killing at a 2-fold dilution; 5: Peptides giving very weak or no killing at a 2-fold dilution; 6: Peptides with weak killing activity at the highest concentration. To be noted: free (cleaved) peptides, killing relative to Bac2A. In short, it runs like this: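 Cellulose-synthesized peptides (amidated C-terminus, two β-alanines) cleaved by ammonia, released from punched spots 30 min at 37 °C, then serially diluted. P. aeruginosa H1001 (constitutive fliC::luxCDABE) overnight culture diluted 1:500 in LB or 100 mM Tris pH 7.3/20 mM glucose. Killing followed as time-dependent luminescence loss at 37 °C.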

Assay [3] has as its system Pseudomonas aeruginosa PAO1 strain H103. The note with it: PAO1. The protocol: (§1) Minimal inhibitory concentration (MIC) determination. The MICs of the peptides were measured using a modified broth microdilution method in Mueller Hinton (MH) medium. Wu et al., J. Biol. Chem. 274: 29-35, 1999. Briefly, the peptides were dissolved and stored in glass vials. The assay was performed in sterile 96-well polypropylene microtitre plates were used. Serial dilutions of the peptides to be assayed were performed in 0.01% acetic acid (Fisher) containing 0.2% bovine serum albumin (Boehringer Mannheim GmbH) at 10× the desired final concentration. Ten microlitres of the 10× peptides were added to each well of a 96-well polypropylene plate containing 90 μl of MH media per well. Bacteria were added to the plate from an overnight culture at 2-7×10^5 colony forming units/ml and incubated over night at 37° C. The MIC was taken as the concentration at which no growth was observed.
(§2) Strains. For the killing assay a mini-Tn5-lux mutant in Pseudomonas aeruginosa H103 was used. The strain is called H1001 and contains a fliC::luxCDABE transcriptional fusion resulting in constitutive expression of luciferase. The bacterial strains used for the antimicrobial activity assays included Escherichia coli UB1005 (F-, nalA37, metB1), a wild-type Salmonella enterica ssp. Typhimurium (S. Typhimurium), wild-type Pseudomonas aeruginosa PAO1 strain H103, Enterococcus faecalis ATCC29212, Staphylococcus aureus ATCC25923, and a clinical isolate of Staphylococcus epidermidis obtained from Dr. D. Speert (Department of Medicine, University of British Columbia). Antifungal activity was tested using a lab isolate of Candida albicans obtained from Dr. B. Dill (Department of Microbiology and Immunology, University of British Columbia).
(§3) In addition, the parent peptide Bac2A was included in these studies as a standard. The minimal inhibitory concentrations (MIC) were determined for the important medical pathogens Pseudomonas aeruginosa, Escherichia coli, Salmonella typhimurium, Staphylococcus aureus, Staphylococcus epidermidis, Enterococcus faecaelis, and the yeast Candida albicans in Mueller-Hinton media.

Assay [4] has as its system Staphylococcus aureus ATCC25923. The note with it: ATCC25923. On the procedure: as §1, §2, §3

Ends that are not written are not given here.

For the substance “RVLIVIRARRVA-NH2 (C-terminus assumed) [Bac043]”, in assay [1], the “Luminescence at the given time in minutes: 0” value (shortened to “Luminescence … in minutes: 0”) came out at 5254 RLU, the “Luminescence at the given time in minutes: 20” value (shortened to “Luminescence … in minutes: 20”) amounted to 6385 RLU, the “Luminescence at the given time in minutes: 40” value (“Luminescence … in minutes: 40” below) was 3722 RLU and the “Luminescence at the given time in minutes: 60” value (from here on “Luminescence … 60”) turned out to be 1189 RLU. Moreover, in assay [1], the “Luminescence at the given time in minutes: 80” value (shortened to “Luminescence … in minutes: 80”) came to 313 RLU, the “Luminescence at the given time in minutes: 100” value (“Luminescence … 100” below) came out at 159 RLU, the “Luminescence at the given time in minutes: 120” value (shortened to “Luminescence … 120”) is given as 67 RLU and the “Luminescence at the given time in minutes: 180” value (“Luminescence … 180” for short) was 84 RLU. In addition, in assay [1], the “Luminescence at the given time in minutes: 240” value (“Luminescence … 240” below) amounted to 52 RLU and the “Activity Class bound” value is listed as 3 (Peptides similar to Bac2A resulting in lux values of less than 500 after 240 min.). In addition, the “Activity Class Soluble” value in assay [2] is recorded as 1. For the same substance, in assay [3], the MIC P. aeruginosa came to 40 µg/mL. In assay [4], this substance returned an MIC S. aureus of 23 µg/mL.
As for “VRIRARRVILVA-NH2 (C-terminus assumed) [Bac006]”, in assay [1], the “Luminescence … in minutes: 0” value was 3878 RLU, the “Luminescence … in minutes: 20” value was 6829 RLU, the “Luminescence … in minutes: 40” value is 4619 RLU and the “Luminescence … 60” value was determined as 2393 RLU. Also, in assay [1], the “Luminescence … in minutes: 80” value is 867 RLU, the “Luminescence … 100” value was 469 RLU, the “Luminescence … 120” value was 277 RLU and the “Luminescence … 180” value came to 286 RLU. Besides, in assay [1], the “Luminescence … 240” value is 306 RLU and the “Activity Class bound” value was 3 (Peptides similar to Bac2A resulting in lux values of less than 500 after 240 min.). Moreover, in assay [2], the “Activity Class Soluble” value stood at 1. The substance further displayed an MIC P. aeruginosa in assay [3] of 28 µg/mL. In assay [4], this substance showed an MIC S. aureus of 28 µg/mL.
For the substance RRVAIVVIARLR [Bac018], in assay [1], the “Luminescence … in minutes: 0” value came out at 4966 RLU, the “Luminescence … in minutes: 20” value worked out at 6080 RLU, the “Luminescence … in minutes: 40” value worked out at 981 RLU and the “Luminescence … 60” value is listed as 82 RLU. Besides, in assay [1], the “Luminescence … in minutes: 80” value came out at 44 RLU, the “Luminescence … 100” value was 60 RLU, the “Luminescence … 120” value amounted to 62 RLU and the “Luminescence … 180” value came out at 50 RLU. In assay [1], the “Luminescence … 240” value came out at 39 RLU; the “Activity Class bound” value was 2 (Peptides reducing lux values to between 500 and 1000 after 40 min.). The “Activity Class Soluble” value in assay [2] worked out at 2.
With RRLVAIVAVRRI [Bac007], in assay [1], the “Luminescence … in minutes: 0” value worked out at 3943 RLU, the “Luminescence … in minutes: 20” value stood at 7157 RLU, the “Luminescence … in minutes: 40” value was 4403 RLU and the “Luminescence … 60” value is 2010 RLU. In addition, in assay [1], the “Luminescence … in minutes: 80” value is 679 RLU, the “Luminescence … 100” value amounted to 205 RLU, the “Luminescence … 120” value was found to be 90 RLU and the “Luminescence … 180” value was found to be 89 RLU. In assay [1], the “Luminescence … 240” value stood at 79 RLU and the “Activity Class bound” value is 3 (Peptides similar to Bac2A resulting in lux values of less than 500 after 240 min.). Also, the “Activity Class Soluble” value in assay [2] is listed as 4.
For IRVRRLVAAVIR [Bac033], in assay [1], the “Luminescence … in minutes: 0” value came to 4795 RLU, the “Luminescence … in minutes: 20” value amounted to 6539 RLU, the “Luminescence … in minutes: 40” value is 4785 RLU and the “Luminescence … 60” value is given as 4155 RLU. Also, in assay [1], the “Luminescence … in minutes: 80” value is reported as 3565 RLU, the “Luminescence … 100” value was determined as 3095 RLU, the “Luminescence … 120” value is 2639 RLU and the “Luminescence … 180” value turned out to be 2613 RLU. Further, in assay [1], the “Luminescence … 240” value is given as 2962 RLU and the “Activity Class bound” value is recorded as 5 (Peptides reducing luminescence (lux) values to between 1500 to 3000 after 240 min.). Also, in assay [2], the “Activity Class Soluble” value worked out at 5.
Regarding RVLRVVRAAIRI [Bac035], in assay [1], the “Luminescence … in minutes: 0” value turned out to be 5199 RLU, the “Luminescence … in minutes: 20” value was 6461 RLU, the “Luminescence … in minutes: 40” value is 4989 RLU and the “Luminescence … 60” value is given as 4389 RLU. In addition, in assay [1], the “Luminescence … in minutes: 80” value was determined as 4001 RLU, the “Luminescence … 100” value came out at 3439 RLU, the “Luminescence … 120” value is given as 3162 RLU and the “Luminescence … 180” value is on record as 2456 RLU. In addition, in assay [1], the “Luminescence … 240” value is reported as 2577 RLU and the “Activity Class bound” value is listed as 5 (Peptides reducing luminescence (lux) values to between 1500 to 3000 after 240 min.). Also, the “Activity Class Soluble” value in assay [2] is given as 5.
Turning to VVRALRRIIARV [Bac048], in assay [1], the “Luminescence … in minutes: 0” value came to 5001 RLU, the “Luminescence … in minutes: 20” value stood at 6505 RLU, the “Luminescence … in minutes: 40” value came out at 5163 RLU and the “Luminescence … 60” value came out at 4406 RLU. Moreover, in assay [1], the “Luminescence … in minutes: 80” value turned out to be 3824 RLU, the “Luminescence … 100” value was found to be 3470 RLU, the “Luminescence … 120” value was 3423 RLU and the “Luminescence … 180” value came to 3268 RLU. Further, in assay [1], the “Luminescence … 240” value is 3694 RLU and the “Activity Class bound” value was 6 (Peptides having residual luminescence (lux) values greater than 3000 after 240 min.). Moreover, the “Activity Class Soluble” value in assay [2] was determined as 4.
In the case of ILVARVIRRRVA [Bac019], in assay [1], the “Luminescence … in minutes: 0” value is 5239 RLU, the “Luminescence … in minutes: 20” value is listed as 7569 RLU, the “Luminescence … in minutes: 40” value was 5731 RLU and the “Luminescence … 60” value was determined as 4741 RLU. In assay [1], the “Luminescence … in minutes: 80” value came to 3822 RLU, the “Luminescence … 100” value is given as 3000 RLU, the “Luminescence … 120” value came out at 2373 RLU and the “Luminescence … 180” value amounted to 1908 RLU. Besides, in assay [1], the “Luminescence … 240” value is 1570 RLU and the “Activity Class bound” value is listed as 5 (Peptides reducing luminescence (lux) values to between 1500 to 3000 after 240 min.). Also, the “Activity Class Soluble” value in assay [2] stood at 5.
For the substance ARIARRVRILVV [Bac021], in assay [1], the “Luminescence … in minutes: 0” value came out at 5470 RLU, the “Luminescence … in minutes: 20” value turned out to be 7247 RLU, the “Luminescence … in minutes: 40” value was 4581 RLU and the “Luminescence … 60” value was determined as 1967 RLU. Also, in assay [1], the “Luminescence … in minutes: 80” value was 683 RLU, the “Luminescence … 100” value worked out at 278 RLU, the “Luminescence … 120” value is 196 RLU and the “Luminescence … 180” value was 129 RLU. For the same substance, in assay [1], the “Luminescence … 240” value came out at 128 RLU and the “Activity Class bound” value was 3 (Peptides similar to Bac2A resulting in lux values of less than 500 after 240 min.). For the same substance, the “Activity Class Soluble” value in assay [2] was determined as 4.
Consider RRRVIVAVLARI [Bac046], for which, in assay [1], the “Luminescence … in minutes: 0” value was determined as 4408 RLU, the “Luminescence … in minutes: 20” value is given as 5904 RLU, the “Luminescence … in minutes: 40” value was determined as 2345 RLU and the “Luminescence … 60” value is 233 RLU. Also, in assay [1], the “Luminescence … in minutes: 80” value amounted to 76 RLU, the “Luminescence … 100” value is recorded as 70 RLU, the “Luminescence … 120” value is recorded as 102 RLU and the “Luminescence … 180” value was 48 RLU. In addition, in assay [1], the “Luminescence … 240” value worked out at 53 RLU and the “Activity Class bound” value is given as 3 (Peptides similar to Bac2A resulting in lux values of less than 500 after 240 min.). The “Activity Class Soluble” value in assay [2] is on record as 3.
